Assay results as given in the supplement of paper PMC13380429.

Experiments:
[1] = system: HepG2; assay: drug sensitivity score (DSS) for viability; higher = more toxic; extreme values may be limits of the assay; conditions: 72 h
[2] = system: Vero E6; assay: as above; conditions: 72 h
[3] = system: Calu-3; assay: as above; conditions: 72 h
[4] = system: Caco-2; assay: as above; conditions: 72 h
[5] = system: U2OS; assay: as above; conditions: 72 h
[6] = system: HepG2; assay: cell viability relative to DMSO; higher = less toxic; conditions: 72 h
[7] = system: Vero E6; assay: as above; conditions: 72 h
[8] = system: Calu-3; assay: as above; conditions: 72 h
[9] = system: Caco-2; assay: as above; conditions: 72 h
[10] = system: U2OS; assay: as above; conditions: 72 h
[11] = system: HepG2; assay: relative viability EC50 (midpoint between 100% and the lowest measured viability); higher = less toxic; conditions: 72 h
[12] = system: Vero E6; assay: as above; conditions: 72 h
[13] = system: Calu-3; assay: as above; conditions: 72 h
[14] = system: Caco-2; assay: as above; conditions: 72 h
[15] = system: U2OS; assay: as above; conditions: 72 h
[16] = system: A549-ACE2 infected with SARS-CoV-2; assay: morphology score (similarity to uninfected cells); higher = more like uninfected cells; conditions: 24 h
[17] = system: A549-ACE2; assay: drug-induced phospholipidosis relative to tamoxifen; higher = more phospholipidosis
[18] = system: A549-ACE2 infected with SARS-CoV-2; assay: SARS-CoV-2 infection rate relative to DMSO; higher = more infection; conditions: 24 h
[19] = system: A549-ACE2; assay: phospholipidosis EC50; higher = less potent phospholipidosis inducer
[20] = system: A549-ACE2 infected with SARS-CoV-2; assay: cell count relative to DMSO; higher = less toxic; conditions: 24 h

COc1nc(N)nc2c1ncn2[C@@H]1O[C@H](CO)[C@@H](O)[C@@H]1O [nelarabine]
Conditions	drug sensitivity score	relative viability EC50 [µM]
[1]	0	–
[2]	0	–
[3]	0	–
[4]	0	–
[5]	0	–
[11]	–	> 10
[12]	–	> 10
[13]	–	> 10
[14]	–	> 10
[15]	–	> 10

cell viability [%]
Conditions	[6]	[7]	[8]	[9]	[10]
1 nM	105	97.4	115	97.3	103
10 nM	104	97.3	101	98	97.5
100 nM	105	99.5	94.8	101	98.5
1000 nM	95.9	97.6	92.3	98.6	95.6
10000 nM	109	98.5	107	104	102

C[C@H]1C[C@H]2[C@@H]3CCC4=CC(=O)C=C[C@]4(C)[C@@]3(Cl)[C@@H](O)C[C@]2(C)[C@@]1(O)C(=O)CO [beclomethasone]
Conditions	drug sensitivity score	relative viability EC50 [µM]
[1]	0	–
[2]	0	–
[3]	0	–
[4]	0	–
[5]	0	–
[11]	–	> 10
[12]	–	> 10
[13]	–	> 10
[14]	–	> 10
[15]	–	> 10

cell viability [%]
Conditions	[6]	[7]	[8]	[9]	[10]
1 nM	92.7	94.4	102	108	97.5
10 nM	110	90.4	97.3	88.6	92.9
100 nM	96.7	93.5	103	95.2	101
1000 nM	106	99.8	95.3	98.4	95.8
10000 nM	113	110	91.5	112	94

CC1(N2CCC(n3c([C@@H]4CCCNC4)nc4ccccc43)CC2)CCCCCCC1 [MCOPPB]
Conditions	SARS-CoV-2 infection rate [%]	cell count [%]	cell viability [%]	morphology score	phospholipidosis EC50 [µM]
[6], 1 nM	–	–	94	–	–
[6], 10 nM	–	–	100	–	–
[6], 100 nM	–	–	99.5	–	–
[6], 1000 nM	–	–	87.5	–	–
[6], 10000 nM	–	–	55.1	–	–
[7], 1 nM	–	–	101	–	–
[7], 10 nM	–	–	101	–	–
[7], 100 nM	–	–	106	–	–
[7], 1000 nM	–	–	99	–	–
[7], 10000 nM	–	–	98.9	–	–
[8], 1 nM	–	–	99.2	–	–
[8], 10 nM	–	–	99.8	–	–
[8], 100 nM	–	–	91.6	–	–
[8], 1000 nM	–	–	99	–	–
[8], 10000 nM	–	–	7.3	–	–
[9], 1 nM	–	–	111	–	–
[9], 10 nM	–	–	105	–	–
[9], 100 nM	–	–	93.5	–	–
[9], 1000 nM	–	–	100	–	–
[9], 10000 nM	–	–	89.3	–	–
[10], 1 nM	–	–	98.6	–	–
[10], 10 nM	–	–	104	–	–
[10], 100 nM	–	–	98.6	–	–
[10], 1000 nM	–	–	100	–	–
[10], 10000 nM	–	–	91.4	–	–
[16], 0.3 µM	–	–	–	0.38	–
[16], 3 µM	–	–	–	0.73	–
[16], 10 µM	–	–	–	0.28	–
[16], 30 µM	–	–	–	-0.07	–
[18], 0.3 µM	89	–	–	–	–
[18], 3 µM	23	–	–	–	–
[18], 10 µM	16	–	–	–	–
[18], 30 µM	27	–	–	–	–
[19], 24 h	–	–	–	–	1.64
[19], 48 h	–	–	–	–	3.3
[19], 72 h	–	–	–	–	4.88
[20], 0.3 µM	–	106	–	–	–
[20], 3 µM	–	115	–	–	–
[20], 10 µM	–	119	–	–	–
[20], 30 µM	–	120	–	–	–

Conditions	drug sensitivity score	relative viability EC50 [µM]
[1]	4.2	–
[2]	0	–
[3]	5.3	–
[4]	0	–
[5]	0	–
[12]	–	> 10
[13]	–	3.09
[14]	–	> 10
[15]	–	> 10

drug-induced phospholipidosis [%], [17]
Conditions	0.3 µM	0.833333 µM	3.33333 µM	6.66667 µM	10 µM	30 µM
24 h	5.09	34	89.2	113	138	112
48 h	5.47	17.9	70.6	117	145	111
72 h	4.22	12.1	45	98.9	137	141

CCn1c2ccccc2c2cc(CNCc3ccccc3OC)ccc21 [HLCL-61]
Conditions	drug sensitivity score	relative viability EC50 [µM]
[1]	1.1	–
[2]	0.1	–
[3]	0	–
[4]	0	–
[5]	0	–
[11]	–	> 10
[12]	–	> 10
[13]	–	> 10
[14]	–	> 10
[15]	–	> 10

cell viability [%]
Conditions	[6]	[7]	[8]	[9]	[10]
1 nM	106	91.3	111	103	100
10 nM	95.4	93.2	99.5	92	96.6
100 nM	93.5	88.2	95.7	94.6	99.2
1000 nM	95.6	88.8	106	107	102
10000 nM	79.2	93.5	87.9	101	94.9
